Measurements as given in ChEMBL document CHEMBL6074621, “Recent advances of honokiol:pharmacological activities, manmade derivatives and structure-activity relationship” (Eur J Med Chem, 2024).

Experiments:
Homo sapiens = species on record: Homo sapiens; test: Inhibition of human pancreatic lipase at 10 uM relative to control
HT-29 = test: Antiproliferative activity against human HT-29 cells assessed as reduction in cell growth after 72 hrs by MTT assay; format: functional, cell-based; conditions: HT-29, 72 h
HCT-116 = test: Antiproliferative activity against human HCT-116 cells assessed as reduction in cell growth after 72 hrs by MTT assay; format: functional, cell-based; conditions: HCT-116, 72 h
PC-3 = test: Antiproliferative activity against human PC-3 cells assessed as reduction in cell growth after 72 hrs by MTT assay; format: functional, cell-based; conditions: PC-3, 72 h
L02 = test: Antiproliferative activity against human LO2 cells; format: functional, cell-based
SMMC-7721 = test: Antiproliferative activity against human SMMC-7721 cells; format: functional, cell-based

SMILES: C/C(Cc1ccc(O)c(-c2ccc3oc(C)cc3c2)c1)=N\NC(=O)c1ccc(O)cc1
- inhibition (Homo sapiens): 81%

SMILES: C=CCc1cc(CC=C)c(O)c(-c2cc(CC=C)c(O)c(CC=C)c2)c1
- IC50 (HT-29): 11.1 µM
- IC50 (HCT-116): 9.8 µM
- IC50 (PC-3): 19.8 µM

SMILES: C=CCc1cc(CN2CCC(N)CC2)c(O)c(-c2cc(CC=C)c(O)c(CN3CCC(N)CC3)c2)c1
- IC50 (L02): 18 µM
- IC50 (SMMC-7721): 13.1 µM
